Assay results: patent US20260344670A1, “BIXLOZONE MIXTURES WITH PETHOXAMID” (FMC CORPORATION, priority 2022, published 2026)

What was measured:
Type in all cases: in vivo
[1] = system: Abutilon theophrasti (ABUTH); assay: pre-emergence control of ABUTH in corn (efficacy, Colby synergy); details: bixlozone 375, pethoxamid 1200, mixtures 375 + 1200 g/ha
Text: (§1) [formula] • where ppm=milligrams of active ingredient (=a.i.) per liter of spray mixture X=% action by component A using p ppm of active ingredient Y=% action by component B using q ppm of active ingredient. If the ratio R defined as the action actually observed (O) divided by the expected action (E) is >1 then the action of the combination is superadditive, i.e. there is a synergistic effect. For a more detailed description of the Colby formula, see Colby, S. R. “Calculating Synergistic and Antagonistic Responses of Herbicide Combination”, Weeds, Vol. 15, pages 20-22; 1967; see also Limpel et al., Proc. NEWCC 16:48-53 (1962).
(§2) As used herein, rating timings correspond to the following: A1=weed assessment at BBCH 11-12; A2=4 weeks after the application; A3=when ZEAMX crop reaches BBCH 18 (row closure); and A4=BBCH 51-59 of the ZEAMX crop.
(§3) The herbicidal compounds bixlozone and pethoxamid were applied in a variety of forms and at a variety of amounts, application rates, and normalities. Efficacy of the herbicidal compositions was evaluated with reference to a scale of 0% to 100% in comparison with untreated control plots. 0 means no damage to the harmful plants and 100 means complete destruction of the harmful plants. Plants per square meter is indicated by “pl/m^2”, and grams per hectare is indicated by “g/ha”. The acronym “EC” means emulsifiable concentrate (a liquid, homogenous formulation to be applied as an emulsion after dilution with water); “SC” means suspension concentrate (a stable suspension of active ingredient(s) with water as the fluid); “ZC” refers to a mixed formulation of CS and SC (a stable suspension of capsules and active ingredient(s) in a fluid, normally intended for dilution with water before use).
(§4) Various forms, compositions, and mixtures of bixlozone and pethoxamid were applied to corn before emergence. […] There was equivalent efficacy for fixed rate of bixlozone combined with pethoxamid: 1200 or 900 g/ha. Efficacy was reduced when bixlozone rate decreased from 250 to 150 g/ha. […]

[2] = system: AMBEL; assay: pre-emergence control of AMBEL in corn (efficacy); details: bixlozone 375, pethoxamid 1200, mixtures 375 + 1200 g/ha
Text: (§5) Various forms, compositions, and mixtures of bixlozone and pethoxamid were applied to corn before emergence. […] Mixtures of bixlozone with 1200 g/ha pethoxamid improved weed spectrum on a range of broad leaf weeds (e.g., CHEAL, MATSS, and POLSS) and grasses (e.g., ECHCG, DIGSA, and SETVI). Combinations of bixlozone and pethoxamid in pre-emergence applications were very safe with no clear pethoxamid rate effect.
Table 8. Efficacies of various forms and mixtures of bixlozone and pethoxamid after pre-emergence application on corn. Weeds were present at ≥5 pl/m^2. Concentrations are shown in parentheses in g/ha.

[3] = system: Persicaria lapathifolia (POLLA); assay: pre-emergence control of POLLA in corn (efficacy, Colby synergy)
Text: as §1, §2, §3, §4

[4] = system: Echinochloa crus-galli (ECHCG); assay: pre-emergence control of ECHCG in corn (efficacy, Colby synergy)
Text: as §1, §2
(§6) The herbicidal compounds bixlozone and pethoxamid were applied in a variety of forms and at a variety of amounts, application rates, and normalities. Efficacy of the herbicidal compositions was evaluated with reference to a scale of 0% to 100% in comparison with untreated control plots. 0 means no damage to the harmful plants and 100 means complete destruction of the harmful plants. Plants per square meter is indicated by “pl/m^2”, and grams per hectare is indicated by “g/ha”. […]

[5] = system: Acalypha virginica (ACCVI); assay: pre-emergence control of ACCVI in corn (Colby synergy)
Text: as §1, §6

[6] = system: Potentilla tridentate (PTLTR); assay: pre-emergence control of PTLTR in corn (Colby synergy); details: bixlozone 375, pethoxamid 1200, mixtures 375 + 1200 g/ha
Text: as §1, §6

[7] = system: Matricaria chamomilla (MATCH); assay: pre-emergence control of MATCH in corn (efficacy, Colby synergy)
Text: as §1, §2, §3, §4

[8] = system: POAAN; assay: pre-emergence control of POAAN in corn (efficacy, Colby synergy); details: bixlozone 375, pethoxamid 300, mixtures 375 + 300 g/ha
Text: (§7) Table 11. Synergy data of various forms and mixtures of bixlozone and pethoxamid after pre-emergence application on corn at the crop row closure stage (BBCH 18). The notations in parentheses show the forms and amounts (in g/ha) of applied bixlozone and pethoxamid, respectively. Where “tank” is noted, the mix is a tank mix. Where “premix” is noted, the mix is a premix. Where there is no notation, the value shown is the Colby calculation for the expected value from separate mixtures.
as §5, with “300” for “1200”, “SOLNI” for “CHEAL, MATSS,”, “ABUTH).” for “POLSS) and grasses (e.g., ECHCG, DIGSA, and SETVI).”
(§8) Table 13. Efficacies of various forms and mixtures of bixlozone and pethoxamid after pre-emergence application on corn. Weeds were present at ≥5 pl/m^2. Concentrations are shown in parentheses in g/ha.
Various forms, compositions, and mixtures of bixlozone and pethoxamid were applied to corn before emergence. […] There was equivalent efficacy for fixed rate of bixlozone combined with pethoxamid: 1200 or 900 g/ha. Efficacy was reduced when bixlozone rate decreased from 250 to 150 g/ha.
Table 14. […]

[9] = system: Lolium multiflorum (LOLMU); assay: pre-emergence control of LOLMU in corn (Colby synergy); details: bixlozone 375, pethoxamid 1200, mixtures 375 + 1200 g/ha
Text: as §1, §6

[10] = system: ANGAR; assay: pre-emergence control of ANGAR in corn (efficacy, Colby synergy); details: bixlozone 375, pethoxamid 800, tank mix 375 + 800, premix 375 + 775 g/ha
Text: (§9) Table 10. Synergy data of various forms and mixtures of bixlozone and pethoxamid after pre-emergence application on corn at the crop row closure stage (BBCH 18). […] The notations in parentheses show the forms and amounts (in g/ha) of applied bixlozone and pethoxamid, respectively. Where “tank” is noted, the mix is a tank mix. Where “premix” is noted, the mix is a premix. Where there is no notation, the value shown is the Colby calculation for the expected value from separate mixtures.
as §5, with “800” for “1200”, “CHEAL” for “CHEAL, MATSS,”, “ABUTH)” for “POLSS)”
(§10) Table 12. Efficacies of various forms and mixtures of bixlozone and pethoxamid after pre-emergence application on corn. Weeds were present at ≥5 pl/m^2. Concentrations are shown in parentheses in g/ha.

[11] = system: Panicum dichotomiflorum (PANDI); assay: pre-emergence control of PANDI in corn (Colby synergy)
Text: as §1, §3, §5

[12] = system: CHEPO; assay: pre-emergence control of CHEPO in corn (efficacy, Colby synergy); details: bixlozone 375, pethoxamid 800, tank mix 375 + 800, premix 375 + 775 g/ha
Text: as §9
as §5, with “800” for “1200”, “CHEAL” for “CHEAL, MATSS,”, “ABUTH)” for “POLSS)”
as §10

[13] = system: DAUCA; assay: pre-emergence control of DAUCA in corn (efficacy, Colby synergy); details: bixlozone 375, pethoxamid 300, mixtures 375 + 300 g/ha
Text: as §7
as §5, with “300” for “1200”, “SOLNI” for “CHEAL, MATSS,”, “ABUTH).” for “POLSS) and grasses (e.g., ECHCG, DIGSA, and SETVI).”
as §8

[14] = system: Polygonum aviculare (POLAV); assay: pre-emergence control of POLAV in corn (Colby synergy); details: bixlozone 375, pethoxamid 1200, mixtures 375 + 1200 g/ha
Text: as §1, §6

[15] = system: Digitaria sanguinalis (DIGSA); assay: pre-emergence control of DIGSA in corn (efficacy, Colby synergy); details: bixlozone 375, pethoxamid 1200, mixtures 375 + 1200 g/ha
Text: as §1, §2, §6

[16] = system: POLHY; assay: pre-emergence control of POLHY in corn (efficacy); details: bixlozone 375, pethoxamid 800, tank mix 375 + 800, premix 375 + 775 g/ha
Text: as §5, with “800” for “1200”, “CHEAL” for “CHEAL, MATSS,”, “ABUTH)” for “POLSS)”
as §10

[17] = system: Chenopodium album (CHEAL); assay: pre-emergence control of CHEAL in corn (efficacy, Colby synergy)
Text: as §1, §2, §3, §4

[18] = system: Senecio vulgaris (SENVU); assay: pre-emergence control of SENVU in corn (efficacy, Colby synergy); details: bixlozone 375, pethoxamid 800, tank mix 375 + 800, premix 375 + 775 g/ha
Text: as §1, §2, §6

[19] = system: Tripleurospermum inodorum (MATIN); assay: pre-emergence control of MATIN in corn (Colby synergy)
Text: as §1, §6

[20] = system: Persicaria maculosa (POLPE); assay: pre-emergence control of POLPE in corn (efficacy, Colby synergy)
Text: as §1, §2, §3, §4

[21] = bixlozone 375, pethoxamid 300, mixtures 375 + 300 g/ha
[22] = bixlozone 375, pethoxamid 800, tank mix 375 + 800, premix 375 + 775 g/ha
[23] = bixlozone 375, pethoxamid 1200, mixtures 375 + 1200 g/ha

CCOCCN(C(=O)CCl)C(=C(C)C)c1ccccc1 [pethoxamid] gave an Efficacy [1] of 56.3, an Efficacy [2] of 7.5 and an Efficacy [3, 21] of 42.2. It also gave an Efficacy [3, 22] of 49.3, an Efficacy [3, 23] of 87.8 and an Efficacy [4, 21] of 48.4. The Efficacy [4, 23] was 85.5, the Efficacy [5, 21] was 65 and the Efficacy [5, 23] was 46.3. It also gave an Efficacy [6] of 0, an Efficacy [7, 21] of 90 and an Efficacy [7, 22] of 100. It also gave an Efficacy [7, 23] of 77.5, an Efficacy [8] of 7.5 and an Efficacy [9] of 78.8. It also gave an Efficacy [10] of 100, an Efficacy [11, 21] of 68.8 and an Efficacy [11, 22] of 71.3. It also gave an Efficacy [11, 23] of 84.8, an Efficacy [12] of 30 and an Efficacy [13] of 83. The Efficacy [14] was 77.5, the Efficacy [15] was 82 and the Efficacy [16] was 92.5. It also gave an Efficacy [17, 21] of 35.7, an Efficacy [17, 22] of 66.6 and an Efficacy [17, 23] of 72.2. The Efficacy [18] was 13.8, the Efficacy [19, 21] was 50 and the Efficacy [19, 23] was 100. The Efficacy [20, 21] was 45.5, the Efficacy [20, 22] was 61.8 and the Efficacy [20, 23] was 62.5.
